The values that follow come from patent US9808445B2, “Factor IXa inhibitors” (Merck Sharp & Dohme Corp., priority 2014, dated 2017).

The assay deals with human factor IXa (Homo sapiens (Human), UniProt P00740). In words: Determination of inhibitory activity against factor IXa (fluorogenic substrate SPECTROFLUOR FIXa). Type of assay: biochemical. Conditions: Factor IXa enzyme assay human. The protocol:
Inhibitory activity against factor IXa was tested using the substrate SPECTROFLUOR FIXa (american diagnostica inc.; 500 West Avenue, Stamford, Conn. 06902 USA; Pr. No. 299F) and human factor IXa (american diagnostica inc.; Pr. No. 449b). Test substances were dissolved in buffer A (50 mM α,α,α-tris (hydroxymethyl) methylamine (Tris), 100 mM NaCl, 5 mM CaCl2, 15% (v/v) ethylene glycol, pH 8.0) were mixed with factor IXa (0.1 μg/ml final concentration). The enzyme reaction was started by addition of SPECTROFLUOR FIXa (100 μM final concentration). After incubation for 60 minutes at room temperature, the reaction was stopped by the addition of 20% (v/v) acetic acid solution, and then the fluorescence value was measured (Excitation Wavelength: 355 nm, Emission Wavelength; 460 nm) in a microtiter plate reader (ARVO 1420 Multilabel Counter; PerkinElmer).
The IC50 was calculated from a dilution series of the test substance with the aid of the software, Symyx Assay Explorer (Symyx Technologies, Inc.).

Where only a bound is given, the exact number is not on record here.

Chain of human factor IXa (P00740 227-461): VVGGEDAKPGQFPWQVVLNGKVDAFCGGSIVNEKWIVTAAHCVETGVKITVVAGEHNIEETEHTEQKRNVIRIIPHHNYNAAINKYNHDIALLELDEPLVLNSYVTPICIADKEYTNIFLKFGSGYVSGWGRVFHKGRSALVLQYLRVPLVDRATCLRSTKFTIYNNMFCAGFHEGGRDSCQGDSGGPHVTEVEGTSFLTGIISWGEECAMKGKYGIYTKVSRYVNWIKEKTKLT
Chain of human factor IXa (P00740 47-191 partner): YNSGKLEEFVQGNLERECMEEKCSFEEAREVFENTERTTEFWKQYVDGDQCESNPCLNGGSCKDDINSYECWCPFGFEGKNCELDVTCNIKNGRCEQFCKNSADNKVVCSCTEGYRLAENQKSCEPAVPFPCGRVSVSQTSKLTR

The IC50 is the concentration that gives 50% inhibition. Lower therefore signals greater potency in that assay. `Cc1cc(N2C[C@@H]3CC[C@H]2[C@@H]3NC(=O)c2c(Cl)cc(-n3cnc(C)n3)cc2Cl)c2onc(N)c2c1` (relative stereo) [Example 3, N-((1S*,4S*,7R*)-2-(3-Amino-5-methylbenzo[d]isoxazol-7-yl)-2-azabicyclo[2.2.1]heptan-7-yl)-2,6-dichloro-4-(3-methyl-1H-1,2,4-triazol-1-yl)benzamide] returned an IC50 of no more than 100 nM.

For `Cn1cc(-c2ccc(C(=O)N[C@@H]3[C@H]4CC[C@@H]3N(c3nc(C#N)cc5c(N)noc35)C4)c(Cl)c2)ccc1=O` (relative stereo) [Example 25, N-((1S*,4S*,7R*)-2-(3-Amino-5-cyanoisoxazolo[5,4-c]pyridin-7-yl)-2-azabicyclo[2.2.1]heptan-7-yl)-2-chloro-4-(1-methyl-6-oxo-1,6-dihydropyridin-3-yl)benzamide], the half-maximal inhibitory concentration (IC50) was no more than 100 nM.

As to `COc1ncc(-c2ccc(C(=O)N[C@@H]3[C@H]4CC[C@@H]3N(c3ncc(Cl)c5c(N)noc35)C4)c(Cl)c2)cn1` (relative stereo) [Example 10, N-((1S*,4S*,7R*)-2-(3-Amino-4-chloroisoxazolo[5,4-c]pyridin-7-yl)-2-azabicyclo[2.2.1]heptan-7-yl)-2-chloro-4-(2-methoxypyrimidin-5-yl)benzamide], the half-inhibitory concentration (IC50) was no more than 100 nM.

On to `Nc1noc2c(N3C[C@@H]4CC[C@H]3[C@@H]4NC(=O)c3ccc(-n4cnc5ccccc54)cc3Cl)ncc(Cl)c12` (relative stereo) [Example 21, N-((1S*,4S*,7R*)-2-(3-Amino-4-chloroisoxazolo[5,4-c]pyridin-7-yl)-2-azabicyclo[2.2.1]heptan-7-yl)-4-(1H-benzo[d]imidazol-1-yl)-2-chlorobenzamide], for which the IC50 is no more than 100 nM.

The molecule `Nc1noc2c(N3C[C@@H]4CC[C@H]3[C@@H]4NC(=O)c3ccc(-c4ccc(=O)n(CCO)c4)cc3Cl)ncc(Cl)c12` (relative stereo) [Example 23, N-((1S*,4S*,7R*)-2-(3-Amino-4-chloroisoxazolo[5,4-c]pyridin-7-yl)-2-azabicyclo[2.2.1]heptan-7-yl)-2-chloro-4-(1-(2-hydroxyethyl)-6-oxo-1,6-dihydropyridin-3-yl)benzamide] returned an IC50 of no more than 100 nM.

As for `Nc1noc2c(N3C[C@@H]4CC[C@H]3[C@@H]4NC(=O)c3ccc(-n4cnc(CCO)c4)cc3Cl)ncc(Cl)c12` (relative stereo) [Example 14, N-((1S*,4S*,7R*)-2-(3-Amino-4-chloroisoxazolo[5,4-c]pyridin-7-yl)-2-azabicyclo[2.2.1]heptan-7-yl)-2-chloro-4-(4-(2-hydroxyethyl)-1H-imidazol-1-yl)benzamide], the half-maximal inhibitory concentration (IC50) was no more than 100 nM.

In the case of `Cc1cc2c(N)noc2c(N2C[C@@H]3CC[C@H]2[C@@H]3NC(=O)c2ccc(-n3cnnc3C(F)(F)F)cc2Cl)n1` (relative stereo) [Example 26, N-((1S*,4S*,7R*)-2-(3-Amino-5-methylisoxazolo[5,4-c]pyridin-7-yl)-2-azabicyclo[2.2.1]heptan-7-yl)-2-chloro-4-(3-(trifluoromethyl)-4H-1,2,4-triazol-4-yl)benzamide], the IC50 was no more than 100 nM.

Molecule `Cc1cc2c(N)noc2c(N2C[C@@H]3CC[C@H]2[C@@H]3NC(=O)c2ccc(-n3cc(CCO)nn3)cc2Cl)n1` (relative stereo) [Example 15, N-((1S*,4S*,7R*)-2-(3-Amino-5-methylisoxazolo[5,4-c]pyridin-7-yl)-2-azabicyclo[2.2.1]heptan-7-yl)-2-chloro-4-(4-(2-hydroxyethyl)-1H-1,2,3-triazol-1-yl)benzamide] yielded a half-maximal inhibitory concentration (IC50) of no more than 100 nM.

`Nc1noc2c(N3C[C@@H]4CC[C@H]3[C@@H]4NC(=O)c3ccc(-n4cnnc4)cc3)ncc(Cl)c12` (relative stereo) [Example 13, N-((1S*,4S*,7R*)-2-(3-Amino-4-chloroisoxazolo[5,4-c]pyridin-7-yl)-2-azabicyclo[2.2.1]heptan-7-yl)-4-(4H-1,2,4-triazol-4-yl)benzamide]: the IC50 was no more than 100 nM.
